EC50 data for 17 molecules are collected here from patent publication US10864196B2, “Modulators of the integrated stress pathway” (Calico Life Sciences LLC, priority 2016, dated 2020).

The experiment has as its system HEK293T cells carrying the ATF4 luciferase reporter. Kind of experiment: ATF4-Luc assay (in vitro model of VWMD). The class given is cell-based. The settings on record: Homo sapiens, HEK-293T, 1 μg/mL tunicamycin, 7 hours, One Glo luminescence. The method, then: In order to test exemplary compounds of the invention in a cellular context, a stable VWMD cell line was first constructed. The ATF4 reporter was prepared by fusing the human full-length ATF4 5′-UTR (NCBI Accession No. BC022088.2) in front of the firefly luciferase (FLuc) coding sequence lacking the initiator methionine as described in Sidrauski et al (eLife 2013). The construct was used to produce recombinant retroviruses using standard methods and the resulting viral supernatant was used to transduce HEK293T cells, which were then subsequently selected with puromycin to generate a stable cell line.
HEK293T cells carrying the ATF4 luciferase reporter were plated on polylysine coated 384-well plates (Greiner Bio-one) at 30,000 cells per well. Cells were treated the next day with 1 μg/mL tunicamycin and 200 nM of a compound of Formula (I) for 7 hours. Luminescence was measured using One Glo (Promega) as specified by the manufacturer. Cells were maintained in DMEM with L-glutamine supplemented with 10% heat-inactivated FBS (Gibco) and Antibiotic-Antimycotic solution (Gibco).
Table 2 below summarizes the EC50 data obtained using the ATF4-Luc assay for exemplary compounds of the invention.

Broadly, the EC50 is the concentration at which the effect is half-maximal. As to `O=C(COc1ccc(Cl)c(F)c1)NC12CC(c3nnc(Oc4cncc(C(F)(F)F)c4)o3)(C1)C2` [Compound 117, 2-(4-chloro-3-fluorophenoxy)-N-[3-(5-{[5-(trifluoromethyl)pyridin-3-yl]oxy}-1,3,4-oxadiazol-2-yl)bicyclo[1.1.1]pentan-1-yl]acetamide], the EC50 lay within 50 to 250 nM.

Take `Cc1ccc(OCc2nnc(C34CC(NC(=O)COc5ccc(Cl)c(F)c5)(C3)C4)o2)cn1` [Compound 146, 2-(4-chloro-3-fluorophenoxy)-N-[3-(5-{[(6-methylpyridin-3-yl)oxy]methyl}-1,3,4-oxadiazol-2-yl)bicyclo[1.1.1]pentan-1-yl]acetamide]: the concentration giving a half-maximal response (EC50) was 250 to 1000 nM.

On to `CC(C)c1ccc(OCc2nnc(C34CC(NC(=O)COc5ccc(Cl)c(F)c5)(C3)C4)o2)cn1` [Compound 154, 2-(4-chloro-3-fluorophenoxy)-N-{3-[5-({[6-(propan-2-yl)pyridin-3-yl]oxy}methyl)-1,3,4-oxadiazol-2-yl]bicyclo[1.1.1]pentan-1-yl}acetamide], for which the concentration giving a half-maximal response (EC50) is greater than 2000 nM.

On to `O=C(COc1ccc(Cl)c(F)c1)NC12CC(c3nnc(Oc4ccc(C(F)(F)F)cc4)o3)(C1)C2` [Compound 131, 2-(4-chloro-3-fluorophenoxy)-N-(3-{5-[4-(trifluoromethyl)phenoxy]-1,3,4-oxadiazol-2-yl}bicyclo[1.1.1]pentan-1-yl)acetamide], for which the EC50 is less than 50 nM.

As to `O=C(COc1ccc(Cl)cc1)NC12CC(c3nc(COc4ccc(Cl)c(Cl)c4)no3)(C1)C2` [Compound 158, 2-(4-chlorophenoxy)-N-(3-{3-[(3,4-dichlorophenoxy)methyl]-1,2,4-oxadiazol-5-yl}bicyclo[1.1.1]pentan-1-yl)acetamide], the EC50 is less than 50 nM.

For the molecule `O=C(COc1ccc(Cl)c(F)c1)NC12CC(c3nc(COc4ccc(Cl)cc4)no3)(C1)C2` [Compound 110, 2-(4-chloro-3-fluorophenoxy)-N-(3-{3-[(4-chlorophenoxy)methyl]-1,2,4-oxadiazol-5-yl}bicyclo[1.1.1]pentan-1-yl)acetamide], the EC50 is 50 to 250 nM.

For `Cc1cc(Oc2nnc(C34CC(NC(=O)COc5ccc(Cl)c(F)c5)(C3)C4)o2)cnc1C#N` [Compound 118, 2-(4-chloro-3-fluorophenoxy)-N-(3-{5-[(6-cyano-5-methylpyridin-3-yl)oxy]-1,3,4-oxadiazol-2-yl}bicyclo[1.1.1]pentan-1-yl)acetamide], the EC50 fell in the range of 250 to 1000 nM.

Regarding `Cc1ccc(OCC(=O)NC23CC(c4nc(COc5ccc(Cl)cc5)no4)(C2)C3)cc1` [Compound 103, N-(3-{3-[(4-chlorophenoxy)methyl]-1,2,4-oxadiazol-5-yl}bicyclo[1.1.1]pentan-1-yl)-2-(4-methylphenoxy)acetamide], the EC50 lay within 50 to 250 nM.

As for `O=C(COc1ccc(Cl)cc1F)NC12CC(c3nc(COc4ccc(Cl)cc4)no3)(C1)C2` [Compound 111, 2-(4-chloro-2-fluorophenoxy)-N-(3-{3-[(4-chlorophenoxy)methyl]-1,2,4-oxadiazol-5-yl}bicyclo[1.1.1]pentan-1-yl)acetamide], the EC50 was 50 to 250 nM.

Consider `COc1ccc(OCc2nnc(C34CC(NC(=O)COc5ccc(Cl)c(F)c5)(C3)C4)o2)cn1` [Compound 142, 2-(4-chloro-3-fluorophenoxy)-N-[3-(5-{[(6-methoxypyridin-3-yl)oxy]methyl}-1,3,4-oxadiazol-2-yl)bicyclo[1.1.1]pentan-1-yl]acetamide], for which the half-maximal effective concentration (EC50) was less than 50 nM.

Consider `CC(C)Oc1ccc(OCc2nnc(C34CC(NC(=O)COc5ccc(Cl)c(F)c5)(C3)C4)o2)cn1` [Compound 147, 2-(4-chloro-3-fluorophenoxy)-N-(3-{5-[({6-[(propan-2-yl)oxy]pyridin-3-yl}oxy)methyl]-1,3,4-oxadiazol-2-yl}bicyclo[1.1.1]pentan-1-yl)acetamide], for which the EC50 lay within 1000 to 2000 nM.

Regarding `O=C(COc1cccc(Cl)c1)NC12CC(c3nc(COc4ccc(Cl)cc4)no3)(C1)C2` [Compound 106, 2-(3-chlorophenoxy)-N-(3-{3-[(4-chlorophenoxy)methyl]-1,2,4-oxadiazol-5-yl}bicyclo[1.1.1]pentan-1-yl)acetamide], the EC50 was 250 to 1000 nM.

For the molecule `O=C(COc1ccc(Cl)c(F)c1)NC12CC(c3nnc(Oc4cccc(F)c4)o3)(C1)C2` [Compound 138, 2-(4-chloro-3-fluorophenoxy)-N-{3-[5-(3-fluorophenoxy)-1,3,4-oxadiazol-2-yl]bicyclo[1.1.1]pentan-1-yl}acetamide], the EC50 lay in the range of 50 to 250 nM.

With `O=C(COc1ccc(Cl)c(Cl)c1)NC12CC(c3nc(COc4ccc(Cl)cc4)no3)(C1)C2` [Compound 105, N-(3-{3-[(4-chlorophenoxy)methyl]-1,2,4-oxadiazol-5-yl}bicyclo[1.1.1]pentan-1-yl)-2-(3,4-dichlorophenoxy)acetamide], the EC50 was less than 50 nM.

`N#Cc1ccc(Oc2nnc(C34CC(NC(=O)COc5ccc(Cl)c(F)c5)(C3)C4)o2)cn1` [Compound 119, 2-(4-chloro-3-fluorophenoxy)-N-(3-{5-[(6-cyanopyridin-3-yl)oxy]-1,3,4-oxadiazol-2-yl}bicyclo[1.1.1]pentan-1-yl)acetamide]: the EC50 lay in the range of 250 to 1000 nM.

Turning to `O=C(COc1ccc(Cl)c(F)c1)NC12CC(c3nc(COc4ccc(C5CC5)nc4)no3)(C1)C2` [Compound 163, 2-(4-chloro-3-fluorophenoxy)-N-[3-(3-{[(6-cyclopropylpyridin-3-yl)oxy]methyl}-1,2,4-oxadiazol-5-yl)bicyclo[1.1.1]pentan-1-yl]acetamide], the EC50 is 250 to 1000 nM.

Consider `Cc1cccc(OCC(=O)NC23CC(c4nc(COc5ccc(Cl)cc5)no4)(C2)C3)c1` [Compound 102, N-(3-{3-[(4-chlorophenoxy)methyl]-1,2,4-oxadiazol-5-yl}bicyclo[1.1.1]pentan-1-yl)-2-(3-methylphenoxy)acetamide], for which the EC50 was 1000 to 2000 nM.
